In patent US9458203B2, “Integrin-blocking polypeptides and uses thereof” (priority 2011, dated 2016):
Read-outs that look alike come from different tables or passages of the source. Ends that are not written are not given here.

Assays:
[1] = tested on: melanoma B16F10; assay: transplanted melanoma B16F10 in C57BL/6 black mice; details: mouse, in vivo
Experimental: Hypodermically injecting polypeptides and other drugs into the left axillary region of mice from the experimental groups respectively while administering only equal quantity of physiological saline to the mice from the negative control group. The total medication period was 14 days, during which cyclophosphamide was administered once every other day, taxol once every three days, low-dose polypeptide twice a day and all other drugs once a day.

[2] = tested on: human cervical cancer HeLa; type: in vivo, nude mice; details: mouse, in vivo
Experimental: (§2) Taking a certain amount of vigorously growing tumor tissue, grinding the tumor tissue under sterile conditions and preparing cell suspension at the concentration of 1×10^7 cells/ml; then hypodermicaly inoculating 0.1 ml of the cell suspension into the right axillary region of nude mice. Keeping measuring the diameter of the transplanted tumor with a vernier caliper, and randomly dividing the mice into groups when the volume of the tumor reached 100-200 mm^3. […] Measuring the tumor diameter once every other day and recording the body weight of mice simultaneously. Intravenously injecting polypeptides to mice from test groups while administering equal quantity of physiological saline to mice from the negative control group. The total medication period was 14 days. Avastin was adopted to set up a positive control group; it was administered through the tail vein once every three days while all other drugs were administered through the tail vein once a day. Leaving mice for a one-week rest after 14 days' medication, then (21 days after medication) killing the mice, surgically dissecting the tumors and measuring the weight of tumors. The tumor volume (TV) was calculated in accordance with the following formula: TV=½×a×b^2

[3] = tested on: human prostate cancer DU-145; type: in vivo, nude mice; details: mouse, in vivo
Experimental: as §2

[4] = type: in vivo, nude mice; details: mouse, in vivo
From the text: (§1) The total medication period was 14 days.

[5] = tested on: human esophageal cancer Ec109; type: in vivo, nude mice; details: mouse, in vivo
From the text: as §1

[6] = tested on: human testicular cancer 5637; type: in vivo, nude mice; details: mouse, in vivo
From the text: as §1

[7] = tested on: sarcoma HT-1080; type: in vivo, nude mice; details: mouse, in vivo
From the text: as §1

[8] = tested on: human bladder cancer HT1376; assay: heterotransplanted human bladder cancer HT1376 in nude mice; type: in vivo; details: for final weight: daily, tail vein injection
From the text: as §1

[9] = tested on: human pancreatic cancer SW-1990; assay: heterotransplanted human pancreatic cancer SW-1990 in nude mice; type: in vivo; details: for final weight: daily, tail vein injection
From the text: as §1

[10] = tested on: human colon cancer HT-29; type: in vivo, nude mice; details: mouse, in vivo
Experimental: as §2

[11] = tested on: human thyroid cancer SW-579; type: in vivo, nude mice; details: mouse, in vivo
Experimental: as §2

[12] = tested on: human renal cancer A498; type: in vivo, nude mice; details: mouse, in vivo
Experimental: as §2

[13] = tested on: human ovarian cancer SK-OV-3; type: in vivo, nude mice; details: mouse, in vivo
Experimental: as §2

[14] = tested on: human laryngeal cancer Hep-2; assay: heterotransplanted human laryngeal cancer Hep-2 in nude mice; type: in vivo; details: for final weight: body weight of nude mice, daily, tail vein injection
From the text: as §1

[15] = tested on: human breast cancer MDA-MB-231; details: mouse, in vivo
Experimental: (§3) Taking a certain amount of vigorously growing tumor tissue, grinding the tumor tissue under sterile conditions and preparing cell suspension at the concentration of 1×10^7 cells/ml; then hypodermicaly inoculating 0.1 ml of the cell suspension into the right axillary region of nude mice. Keeping measuring the diameter of the transplanted tumor with a vernier caliper, and randomly dividing the mice into groups when the volume of the tumor reached 100-200 mm^3. Observing the dynamic effect of integrin-blocking polypeptides on inhibiting the growth of the tumor by means of documenting the change of tumor diameters. Measuring the tumor diameter once every other day and recording the body weight of mice simultaneously. Intravenously injecting polypeptides to mice from test groups while administering equal quantity of physiological saline to mice from the negative control group. The total medication period was 14 days. Avastin was adopted to set up a positive control group; it was administered through the tail vein once every three days while all other drugs were administered through the tail vein once a day. Leaving mice for a one-week rest after 14 days' medication, then (21 days after medication) killing the mice, surgically dissecting the tumors and measuring the weight of tumors. The tumor volume (TV) was calculated in accordance with the following formula: TV=½×a×b^2
(§4) wherein a, b refer to the length and width of the tumor respectively.
(§5) The relative tumor volume (RTV) can be calculated in accordance with the results of measurement, using the formula: RTV=Vt/V0, wherein V0 refers to the initial tumor volume measured on the date starting medication (namely d0) while Vt the tumor volume obtained through every measurement. The anti-tumor activity was evaluated by relative proliferation rate T/C (%), which was calculated in accordance with the following formula:
(§6) wherein TRTV refers to the RTV of experimental groups; CRTV refers to the RTV of the negative control group.

[16] = tested on: human gastric cancer MGC-803; details: mouse, in vivo
From the text: (§7) Keeping measuring the diameter of the transplanted tumor with a vernier caliper, and randomly dividing the mice into groups when the volume of the tumor reached 100-200 mm^3. Observing the dynamic effect of integrin-blocking polypeptides on inhibiting the growth of the tumor by means of documenting the change of tumor diameters. Measuring the tumor diameter once every other day and recording the body weight of mice simultaneously. Intravenously injecting polypeptides to mice from test groups while administering equal quantity of physiological saline to mice from the negative control group. The total medication period was 14 days. Avastin was adopted to set up a positive control group; it was administered through the tail vein once every three days while all other drugs were administered through the tail vein once a day. Leaving mice for a one-week rest after 14 days' medication, then (21 days after medication) killing the mice, surgically dissecting the tumors and measuring the weight of tumors. The tumor volume (TV) was calculated in accordance with the following formula: TV=½×a×b^2

[17] = tested on: human lung cancer H460; details: mouse, in vivo
Experimental: as §3
(§8) Taxol used in the positive control group was administered once every 3 days through tail vein injection, while drugs of all other groups were administered on daily basis through tail vein injection.

[18] = tested on: human liver cancer SMMC-7721; details: mouse, in vivo
Experimental: as §3, §8

[19] = tested on: human endometrial cancer HHUA; details: mouse, in vivo
Experimental: as §3, §8

[20] = tested on: human gallbladder cancer GBC-SD; details: mouse, in vivo
Experimental: as §3
(§9) Avastin used in the positive control group was administered once every 2 days through tail vein injection, while drugs of all other groups were administered on daily basis through tail vein injection.

[21] = tested on: human brain tumor SF763; details: mouse, in vivo
Experimental: as §3, §8

[22] = tested on: human rectal cancer Colo 320; details: mouse, in vivo
Experimental: as §3, §8

[23] = tested on: human gastric cancer MGC-803; assay: heterotransplanted human gastric cancer MGC-803 in nude mice; details: for final weight: tail vein daily
From the text: as §7

[24] = tested on: human breast cancer MDA-MB-231; assay: heterotransplanted human breast cancer MDA-MB-231 in nude mice; details: for final weight: tail vein once a day, 14 days
Experimental: as §3, §4, §5, §6

[25] = tested on: human gallbladder cancer GBC-SD; assay: heterotransplanted human gallbladder cancer GBC-SD in nude mice; details: for final weight: daily, tail vein injection
Experimental: as §3, §9

[26] = in contrast with the negative control group

## FQPVLHLVALNSPLSGGMRGIRGADFQCFQQARAVGLAGTFRA [polypeptide I]
[1]
  body weight of animals, in words: no significant change
  toxic and side effects, in words: no significant toxic and side effects
[2]
  body weight of animals, in words: no significant change in body weight
  toxic and side effects, in words: no obvious toxic and side effects
[3]
  body weight of animals, in words: no significant change in body weight
  toxic and side effects, in words: no obvious toxic and side effects
[4]
  body weight of animals, in words: no significant change in body weight
[5]
  body weight of animals, in words: no significant change in body weight
  toxic and side effects, in words: no obvious toxic and side effects
[6]
  toxic and side effects, in words: no obvious toxic and side effects
[7]
  body weight of animals, in words: no significant change in body weight
  toxic and side effects, in words: no obvious toxic and side effects
[7]; 0.75 mg/kg
  final weight: 22.99 ± 0.51 g
[7]; 1.5 mg/kg
  final weight: 23.10 ± 0.64 g
[7]; 3 mg/kg
  final weight: 23.13 ± 0.38 g
[8]; 0.75 mg/kg/time
  final weight: 23.17 ± 0.58 g
[8]; 1.5 mg/kg/time
  final weight: 22.88 ± 0.66 g
[8]; 3 mg/kg/time
  final weight: 23.14 ± 0.54 g
[8]; [26]
  body weight of animals, in words: no significant change in body weight
[8]; mouse, in vivo
  toxic and side effects, in words: no obvious toxic and side effects
[9]; 0.75 mg/kg/time
  final weight: 23.06 ± 0.64 g
[9]; 1.5 mg/kg/time
  final weight: 23.03 ± 0.65 g
[9]; 3 mg/kg/time
  final weight: 22.86 ± 0.65 g
[9]; [26]
  body weight of animals, in words: no significant change in body weight
[9]; mouse, in vivo
  toxic and side effects, in words: no obvious toxic and side effects
[10]
  body weight of animals, in words: no significant change in body weight
  toxic and side effects, in words: no obvious toxic and side effects
[11]
  body weight of animals, in words: no significant change in body weight
  toxic and side effects, in words: no obvious toxic and side effects
[12]
  body weight of animals, in words: no significant change in body weight
  toxic and side effects, in words: no obvious toxic and side effects
[13]
  body weight of animals, in words: no significant change in body weight
  toxic and side effects, in words: no obvious toxic and side effects
[13]; 0.75 mg/kg
  final weight: 23.09 ± 0.59 g
[13]; 1.5 mg/kg
  final weight: 22.96 ± 0.59 g
[13]; 3 mg/kg
  final weight: 23.16 ± 0.51 g
[14]; 0.75 mg/kg/time
  final weight: 22.88 ± 0.63 g
[14]; 1.5 mg/kg/time
  final weight: 23.21 ± 0.62 g
[14]; 3 mg/kg/time
  final weight: 22.99 ± 0.62 g
[14]; [26]
  body weight of animals, in words: no significant change in body weight
[14]; mouse, in vivo
  toxic and side effects, in words: no obvious toxic and side effects
[15]
  toxic and side effects, in words: no obvious toxic and side effects
[16]
  toxic and side effects, in words: no obvious toxic and side effects
[17]
  body weight of animals, in words: no significant change in body weight
  toxic and side effects, in words: no obvious toxic and side effects
[18]
  body weight of animals, in words: no significant change in body weight
  toxic and side effects, in words: no obvious toxic and side effects
[19]
  body weight of animals, in words: no significant change in body weight
  toxic and side effects, in words: no obvious toxic and side effects
[20]
  toxic and side effects, in words: no obvious toxic and side effects
[21]
  body weight of animals, in words: no significant change in body weight
  toxic and side effects, in words: no obvious toxic and side effects
[21]; 0.75 mg/kg
  final weight: 22.90 ± 0.69 g
[21]; 1.5 mg/kg
  final weight: 22.99 ± 0.62 g
[21]; 3 mg/kg
  final weight: 20.94 ± 0.47 g
[22]
  body weight of animals, in words: no significant change in body weight
  toxic and side effects, in words: no obvious toxic and side effects
[22]; 0.75 mg/kg
  final weight: 23.11 ± 0.61 g
[22]; 1.5 mg/kg
  final weight: 22.87 ± 0.57 g
[22]; 3 mg/kg
  final weight: 20.99 ± 0.66 g
[23]; 0.75 mg/kg/time
  final weight: 22.98 ± 0.60 g
[23]; 1.5 mg/kg/time
  final weight: 22.66 ± 0.61 g
[23]; 3 mg/kg/time
  final weight: 23.23 ± 0.67 g
[23]; [26]
  body weight of animals, in words: no significant change in body weight
[24]; 0.75 mg/kg/time
  final weight: 22.28 ± 1.75 g
[24]; 1.5 mg/kg/time
  final weight: 20.21 ± 1.97 g
[24]; 3 mg/kg/time
  final weight: 19.34 ± 1.13 g
[24]; [26]
  body weight of animals, in words: no significant change in body weight
[25]; 0.75 mg/kg/time
  final weight: 22.95 ± 0.46 g
[25]; 1.5 mg/kg/time
  final weight: 23.04 ± 0.55 g
[25]; 3 mg/kg/time
  final weight: 22.89 ± 0.51 g
[25]; [26]
  body weight of animals, in words: no significant change in body weight
